Results on 18 compounds are retold here after US8455534B2, “Estrogen receptor modulators and uses thereof” (Aragon Pharmaceuticals, Inc., priority 2010, dated 2013).

The test system of experiment [1] is MCF-7 cells. As to the kind of experiment: Breast Cancer Cell Viability Assay (MCF-7, CellTiter-Glo). The settings on record: 5 days' compound exposure; for IC50: Homo sapiens, MCF7, 120 h. It is filed as cell-based. The method in brief: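 MCF-7 cells, 320 per well in RPMI with 10% FBS and 20 mM HEPES, adhered overnight, then exposed 5 days to an eleven-point semilog dilution (final 0.3-0.000003 μM). CellTiter-Glo luminescence read; % viability = (sample − cell-free background)/(untreated − background) × 100.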
On the technique in general: ATP-based viability assays read luminescence as a measure of living cells.

In experiment [2] the target is T1, ER-α (Homo sapiens, UniProt P03372).
T1 sequence (P03372 1-595): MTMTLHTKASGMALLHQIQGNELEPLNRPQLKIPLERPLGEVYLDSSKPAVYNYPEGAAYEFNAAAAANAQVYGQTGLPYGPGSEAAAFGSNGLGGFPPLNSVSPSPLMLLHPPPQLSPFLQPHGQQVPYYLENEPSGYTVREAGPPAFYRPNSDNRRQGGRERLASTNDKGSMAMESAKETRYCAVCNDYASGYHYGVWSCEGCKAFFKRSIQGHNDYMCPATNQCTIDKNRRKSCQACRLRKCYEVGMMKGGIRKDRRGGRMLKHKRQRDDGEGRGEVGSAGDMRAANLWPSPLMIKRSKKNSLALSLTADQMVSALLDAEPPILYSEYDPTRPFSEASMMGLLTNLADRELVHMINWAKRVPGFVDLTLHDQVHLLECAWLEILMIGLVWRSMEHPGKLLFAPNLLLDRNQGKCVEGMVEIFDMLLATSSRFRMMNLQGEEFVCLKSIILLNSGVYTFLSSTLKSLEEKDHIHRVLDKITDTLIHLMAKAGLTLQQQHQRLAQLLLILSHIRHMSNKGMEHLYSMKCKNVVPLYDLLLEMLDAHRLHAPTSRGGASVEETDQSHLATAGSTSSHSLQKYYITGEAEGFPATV
Kind of experiment: Breast Cancer Cell ER-α In Cell Western Assay (SP1). It is filed as cell-based. To be noted: MCF-7 cells, SP1 antibody, 4 or 24 hr post compound addition; for Emax: MCF7, read-out: ER-α In Cell Western Assay (SP1) Max Response; for DC50: read-out: ER-α In Cell Western Assay (SP1) IC50. The method in brief:
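ER-α protein levels measured by in-cell western with SP1 antibody, ratioed to DRAQ5 DNA signal and given as percent of untreated controls. Compounds added at 0.3–0.000003 μM final (eleven semilog points) to adherent MCF-7 cells in stripped serum; exposure 4 or 24 h before fixation.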

Some results are limits rather than exact numbers.

In general, IC50 refers to the midpoint of a concentration-inhibition curve. A lower IC50 goes with greater potency in that assay. For the compound `CC/C(=C(\c1ccc2[nH]ncc2c1)c1ccc(/C=C/C(=O)O)cc1OC)c1ccccc1` [Compound 108, (E)-3-(4-((Z)-1-(1H-Indazol-5-yl)-2-phenylbut-1-en-1-yl)-3-methoxyphenyl)acrylic acid], in experiment [1], the “MCF7 Viability Assay Max Response” value is reported as “++ (++ = a single % value ≧ 40%)” and the IC50 was at most 100 nM. The Emax in experiment [2] was at least 40%.
Turning to `CC/C(=C(/c1ccc(/C=C/C(=O)O)c(OC)c1)c1ccc2[nH]ncc2c1)c1ccccc1` [Compound 109, (E)-3-(4-((Z)-1-(1H-Indazol-5-yl)-2-phenylbut-1-en-1-yl)-2-methoxyphenyl)acrylic acid], in experiment [1], the “MCF7 Viability Assay Max Response” value is listed as “++ (++ = a single % value ≧ 40%)” and the IC50 is at most 100 nM. Besides, the Emax in experiment [2] is at least 40%.
As to `CCOC(=O)/C=C/c1ccc(/C(=C(/CC)c2ccc(F)cc2Cl)c2ccc3[nH]ncc3c2)cc1.Cl` [Compound 110, (E)-Ethyl 3-(4-((E)-2-(2-chloro-4-fluorophenyl)-1-(1H-indazol-5-yl)but-1-en-1-yl)phenyl)acrylate hydrochloride], in experiment [1], the “MCF7 Viability Assay Max Response” value was “+ (+ = a single % value < 40%)” and the IC50 was at most 100 nM. In experiment [2], the Emax is at least 40% and the DC50 was at most 100 nM.
`CCOC(=O)/C=C/c1ccc(/C(=C(/CC)c2ccc(Cl)cc2Cl)c2ccc3[nH]ncc3c2)cc1` [Compound 112, (E)-Ethyl 3-(4-((E)-2-(2,4-dichlorophenyl)-1-(1H-indazol-5-yl)but-1-en-1-yl)phenyl)acrylate]: in experiment [1], the “MCF7 Viability Assay Max Response” value is “+ (+ = a single % value < 40%)” and the IC50 was at most 100 nM. In addition, in experiment [2], the Emax was at least 40% and the DC50 is at most 100 nM.
With `CC/C(=C(/c1ccc(/C=C/C(=O)O)cc1)c1ccc2[nH]ncc2c1)c1ccc(Cl)cc1Cl` [Compound 113, (E)-3-(4-((E)-2-(2,4-Dichlorophenyl)-1-(1H-indazol-5-yl)but-1-en-1-yl)phenyl)acrylic acid], in experiment [1], the “MCF7 Viability Assay Max Response” value is “++ (++ = a single % value ≧ 40%)” and the IC50 is at most 100 nM. Besides, in experiment [2], the Emax is at least 40% and the DC50 was at most 100 nM.
Take `CC/C(=C(/c1ccc(/C=C/C(=O)O)cc1)c1ccc2[nH]ncc2c1)c1ccc(Cl)cc1C(F)(F)F` [Compound 114, (E)-3-(4-((E)-2-(4-Chloro-2-(trifluoromethyl)phenyl)-1-(1H-indazol-5-yl)but-1-en-1-yl)phenyl)acrylic acid]: in experiment [1], the “MCF7 Viability Assay Max Response” value is on record as “++ (++ = a single % value ≧ 40%)” and the IC50 was at most 100 nM. Besides, in experiment [2], the Emax is at least 40% and the DC50 was at most 100 nM.
With `O=C(O)/C=C/c1ccc(/C(=C(\c2ccc(F)cc2Cl)C2CC2)c2ccc3[nH]ncc3c2)cc1` [Compound 115, (E)-3-(4-((E)-2-(2-Chloro-4-fluorophenyl)-2-cyclopropyl-1-(1H-indazol-5-yl)vinyl)phenyl)acrylic acid], in experiment [1], the “MCF7 Viability Assay Max Response” value is listed as “++ (++ = a single % value ≧ 40%)” and the IC50 is at most 100 nM. In experiment [2], the Emax is at least 40% and the DC50 was at most 100 nM.
Take `CC/C(=C(/c1ccc(/C=C/C(=O)O)cc1)c1ccc2[nH]ncc2c1)c1ccc(F)cc1C(F)(F)F` [Compound 116, (E)-3-(4-((E)-2-(4-Fluoro-2-(trifluoromethyl)phenyl)-1-(1H-indazol-5-yl)but-1-en-1-yl)phenyl)acrylic acid]: in experiment [1], the “MCF7 Viability Assay Max Response” value was “++ (++ = a single % value ≧ 40%)” and the half-maximal inhibitory concentration (IC50) is at most 100 nM. In experiment [2], the Emax is at least 40% and the DC50 is at most 100 nM.
Regarding `CC/C(=C(/c1ccc(/C=C/C(=O)O)cc1)c1ccc2[nH]ncc2c1F)c1ccc(Cl)cc1Cl` [Compound 118, (E)-3-(4-((E)-2-(2,4-Dichlorophenyl)-1-(4-fluoro-1H-indazol-5-yl)but-1-en-1-yl)phenyl)acrylic acid], in experiment [1], the “MCF7 Viability Assay Max Response” value is “++ (++ = a single % value ≧ 40%)” and the IC50 is at most 100 nM. In addition, in experiment [2], the Emax was at least 40% and the DC50 is at most 100 nM.
As for `CC/C(=C(/c1ccc(/C=C/C(=O)O)cc1)c1ccc2[nH]ncc2c1F)c1ccc(Cl)cc1C(F)(F)F` [Compound 119, (E)-3-(4-((E)-2-(4-Chloro-2-(trifluoromethyl)phenyl)-1-(4-fluoro-1H-indazol-5-yl)but-1-en-1-yl)phenyl)acrylic acid], in experiment [1], the “MCF7 Viability Assay Max Response” value was “++ (++ = a single % value ≧ 40%)” and the IC50 is at most 100 nM. Also, in experiment [2], the Emax was at least 40% and the DC50 is at most 100 nM.
`O=C(O)/C=C/c1ccc(/C(=C(/CCF)c2ccc(F)cc2Cl)c2ccc3[nH]ncc3c2)cc1` [Compound 120, (E)-3-(4-((E)-2-(2-Chloro-4-fluorophenyl)-4-fluoro-1-(1H-indazol-5-yl)but-1-en-1-yl)phenyl)acrylic acid]: in experiment [1], the “MCF7 Viability Assay Max Response” value is “++ (++ = a single % value ≧ 40%)” and the IC50 is at most 100 nM. In experiment [2], the Emax was at least 40% and the DC50 is at most 100 nM.
Consider `CC/C(=C(/c1ccc(/C=C/C(=O)O)cc1)c1ccc2[nH]ncc2c1)c1ccc(OC)cc1Cl` [Compound 121, (E)-3-(4-((E)-2-(2-Chloro-4-methoxyphenyl)-1-(1H-indazol-5-yl)but-1-en-1-yl)phenyl)acrylic acid], for which, in experiment [1], the “MCF7 Viability Assay Max Response” value is “++ (++ = a single % value ≧ 40%)” and the IC50 is at most 100 nM. Besides, in experiment [2], the Emax is at least 40% and the DC50 was at most 100 nM.
On to `O=C(O)/C=C/c1ccc(/C(=C(/CCF)c2ccc(Cl)cc2Cl)c2ccc3[nH]ncc3c2F)cc1` [Compound 122, (E)-3-(4-((E)-2-(2,4-Dichlorophenyl)-4-fluoro-1-(4-fluoro-1H-indazol-5-yl)but-1-en-1-yl)phenyl)acrylic acid], for which, in experiment [1], the “MCF7 Viability Assay Max Response” value is “++ (++ = a single % value ≧ 40%)” and the IC50 is at most 100 nM. For the same compound, in experiment [2], the Emax is at least 40% and the DC50 is at most 100 nM.
For the compound `O=C(O)/C=C/c1ccc(/C(=C(\c2ccc(Cl)cc2Cl)C2CC2)c2ccc3[nH]ncc3c2F)cc1` [Compound 123, (E)-3-(4-((E)-2-Cyclopropyl-2-(2,4-dichlorophenyl)-1-(4-fluoro-1H-indazol-5-yl)vinyl)phenyl)acrylic acid], in experiment [1], the “MCF7 Viability Assay Max Response” value is “++ (++ = a single % value ≧ 40%)” and the IC50 is at most 100 nM. Further, in experiment [2], the Emax was at least 40% and the DC50 was at most 100 nM.
Consider `O=C(O)/C=C/c1ccc(/C(=C(\c2ccc(F)cc2Cl)C2CC2)c2ccc3[nH]ncc3c2F)cc1` [Compound 124, (E)-3-(4-((E)-2-(2-Chloro-4-fluorophenyl)-2-cyclopropyl-1-(4-fluoro-1H-indazol-5-yl)vinyl)phenyl)acrylic acid], for which, in experiment [1], the “MCF7 Viability Assay Max Response” value is listed as “++ (++ = a single % value ≧ 40%)” and the IC50 is at most 100 nM. Further, in experiment [2], the Emax was at least 40% and the DC50 is at most 100 nM.
Turning to `O=C(O)/C=C/c1ccc(/C(=C(\c2ccc(Cl)cc2Cl)C2CC2)c2ccc3[nH]ncc3c2)cc1` [Compound 125, (E)-3-(4-((E)-2-Cyclopropyl-2-(2,4-dichlorophenyl)-1-(1H-indazol-5-yl)vinyl)phenyl)acrylic acid], in experiment [1], the “MCF7 Viability Assay Max Response” value is “++ (++ = a single % value ≧ 40%)” and the IC50 was at most 100 nM. Further, in experiment [2], the Emax is at least 40% and the DC50 was at most 100 nM.
Turning to `Cc1cc(Cl)ccc1/C(=C(\c1ccc(/C=C/C(=O)O)cc1)c1ccc2[nH]ncc2c1)C1CC1` [Compound 126, (E)-3-(4-((E)-2-(4-Chloro-2-methylphenyl)-2-cyclopropyl-1-(1H-indazol-5-yl)vinyl)phenyl)acrylic acid], in experiment [1], the “MCF7 Viability Assay Max Response” value is on record as “++ (++ = a single % value ≧ 40%)” and the IC50 is at most 100 nM. For the same compound, in experiment [2], the Emax was at least 40% and the DC50 is at most 100 nM.
Take `CC/C(=C(/c1ccc(/C=C/C(=O)O)cc1)c1ccc2[nH]ncc2c1)c1cc(S(C)(=O)=O)ccc1C` [Compound 127, (E)-3-(4-((E)-1-(1H-Indazol-5-yl)-2-(2-methyl-5-(methylsulfonyl)phenyl)but-1-en-1-yl)phenyl)acrylic acid]: in experiment [1], the “MCF7 Viability Assay Max Response” value is listed as “+ (+ = a single % value < 40%)” and the IC50 was above 100 nM. Besides, in experiment [2], the Emax was below 40% and the DC50 is above 100 nM.
